Results published in patent publication US12168013B2, “Antiviral prodrugs and nanoformulations thereof” (Board of Regents of the University of Nebraska, priority 2018, dated 2024).
≈ marks a conversion by molar mass, not a printed value. Where “and” joins values, the source holds several entries; their conditions need not be identical. Equal entries are not always repeated.

Experiments:
Aqueous solubility = assay type: physicochemical; conditions: optima water, room temperature; for solubility at 24 h: thermodynamic from solid; for aqueous solubility: 24 hours
Procedure: The aqueous solubility of CAB, MCAB, M2CAB and M3CAB in optima water was determined by adding the excess drug or prodrug powder in 1 mL water to make the saturated aqueous solution. The mixture was stirred for 24 hours at room temperature. Further, the solution was centrifuged at 14000 rpm for 10 minutes to pellet the undissolved powder. The supernatant was collected, lyophilized and dissolved in methanol for the drug content analysis by UPLC UV/Vis.

HIV-1ADA = experiment: Half-maximum effective concentration (EC50) assay, HIV-1 RT activity in MDM; assay type: cell-based; conditions: HIV-1ADA MOI 0.1, 10 days
Procedure: MDMs were plated in clear flat-bottom 24-well plates at a density of 0.8×10^6 cells/well. […] Following treatment, cells were washed with PBS and cultured in fresh culture medium with half-media replacement every other day. At 1, 5, 10, 15, 20, 25 and 30 days after the treatment, the cells were infected with HIV-1ADA (a macrophage tropic viral strain) at a multiplicity of infection (MOI) of 0.1 infectious particles per cell for 16 hours. Following infection period, MDM were washed with PBS and replenished with fresh media. Cells were cultured for next ten days with half-media replacement every other day, and the full media replacement on the 8th day. The culture media was collected on the 10th day after infection for the measurement of HIV-1 RT activity (Kalter, et al., J. Immunol. (1991) 146:3396-3404; Nowacek, et al., J. Neuroimmune Pharm. (2010) 5:592-601). The extent of infection was expressed as a percent of RT activity by infected MDM that were not treated. Cells were fixed in 2% PFA, and expression of HIV-1 p24 antigen was determined by immunocytochemistry (Nowacek, et al., J. Neuroimmune Pharm. (2010) 5:592-601).
MDM were plated in clear flat-bottom 96-well plates (0.08×10^6 cells/well). […] After 4 hours of viral challenge, cells were washed and given fresh media containing drug (0.1-1000 nM). Subsequently, cell supernatants were collected 10 days later and assayed for HIV-1 RT activity as described above.

HIV-1 = conditions: protein-adjusted; cited from earlier work
[1] = after oral administration; cited from earlier work
1-octanol solubility = conditions: organic solvent or mixture
[2] = Plasma cleavage drug hydrolysis kinetics; assay type: in vitro ADME, mouse, rat, rabbit, monkey, dog, and human; conditions: for prodrug cleavage in plasma: plasma of all species tested
Procedure: The hydrolysis kinetics of MCAB, M2CAB and M3CAB and relative release of active drug were determined in plasma of different species (mouse, rat, rabbit, monkey, dog, and human). MCAB, M2CAB or M3CAB (1 μM) were incubated in 100 μL plasma at 37° C. At different time points, 1 mL acidified methanol (0.1% formic acid and 25 mM ammonium formate to avoid further prodrug hydrolysis) was added to each sample and vortexed for 3 minutes to stop the reaction. For 0-minute time-point, a 100 μL ice cold plasma was spiked with prodrug stock solution, and 1 ml of ice cold acidic methanol was added immediately. Following the addition of methanol, samples were centrifuged at 15,000 g for 10 minutes, and collected supernatant was analyzed for drug content by UPLC-MS/MS (Waters Xevo TQ-XS).

[3] = Chemical stability at acidic, neutral and basic pH; assay type: physicochemical; conditions: for prodrug hydrolysis: 24 hours
Procedure: The stability of MCAB, M2CAB and M3CAB in acidic (pH 1), basic (pH 11) and neutral (pH 7) conditions at room temperature and elevated temperature (37° C.) was determined. The stock solution of each prodrug was prepared in DMSO at a concentration of 1 mg/mL. For acidic, basic and neutral assays, 100 μL of stock solution of each prodrug was added to 1900 μL of 0.1 M HCl, 0.1 M NaOH or optima-grade water (pH adjusted to 7), respectively. Samples were then incubated at room temperature and […] under shaking conditions (Innova® 42 shaker incubator, 150 rpm). Samples were withdrawn at 0, 2, 4, 8 and 24 hours and stored at −80° C. Later, samples were analyzed for drug content by UPLC-UV/Vis.

[4] = PK and biodistribution in NSG mice; assay type: in vivo
Procedure: Drug levels from plasma and tissues were assayed by UPLC-MS/MS. Drug levels in plasma were monitored weekly.
Following injection, blood samples were collected into heparinized tubes at day 1 post-administration and then weekly up to day 364 by cheek puncture (submandibular vein, MEDIpoint, Inc., Mineola, NY). Collected blood (25 μL) was immediately diluted into 1 mL ACN and stored at −80° C. until drug measurements. Remaining blood samples were centrifuged at 2,000 g for 8 minutes for plasma collection. Plasma was collected and stored at −80° C. for analysis of drug contents. At day 14, 28, 42 and 364 following administration, animals were humanly euthanized by isoflourane inhalation, followed by cervical dislocation. Spleen, lymph nodes, liver, lung, gut, kidney, brain, vaginal tissue, and rectal tissue were collected for quantitation of CAB and prodrug concentrations. CAB, MCAB, M2CAB and M3CAB were quantitated in mouse plasma, blood and tissues by UPLC-MS/MS using a Waters ACQUITY H-class UPLC (Waters, Milford, MA, USA) connected to a Xevo TQ-S micro mass spectrometer. All solvents for sample processing and UPLC-MS/MS analysis were LCMS-grade (Fisher). For plasma and blood samples, 25 μL of sample was added into 1 mL acetonitrile (ACN) spiked with 10 μL internal standard (IS). d3-Dolutegravir (d3-DTG), myristoylated dolutegravir (MDTG), and stearoylated darunavir (SDRV), at a final concentration of 200, 20 and 20 ng/mL, respectively, were used as ISs for CAB, MCAB and M2CAB/M3CAB analyses, respectively. Samples were vortexed and centrifuged at 17,000×g for 10 minutes at 4° C. […] For tissue drug quantitation, 3-200 mg of sample was homogenized in 4-29 volumes of 0.1% v/v formic acid and 2.5 mM ammonium formate containing 90% methanol. […] For CAB quantitation, chromatographic separation of 10 μL CAB sample was performed on a Waters ACQUITY UPLC BEH Shield RP18 column (1.7 μm, 2.1 mm×100 mm) using a 10-minute gradient of mobile phase A (7.5 mM ammonium formate in water, adjusted to pH 3 using formic acid) and mobile phase B (100% ACN) at a flow rate of 0.25 mL/minute. […]

[5] = Human immunodeficiency virus 1, 240 h

C[C@H]1CO[C@@H]2Cn3cc(C(=O)NCc4ccc(F)cc4F)c(=O)c(O)c3C(=O)N12 [CAB, cabotegravir]
solubility at 24 h (Aqueous solubility): 12.1 ± 0.41 µg/mL (≈ 29.9 µM)
EC50 (HIV-1ADA; [5]): 28.4 nM
4×PA-IC90 (HIV-1): 0.66 µg/mL and 0.664 µg/mL
PA-IC90 (HIV-1): 0.166 µg/mL
systemic half-life [1]: approximately 40 hours
solubility (1-octanol solubility): 90 ± 2 µg/mL (≈ 222 µM)

CCCCCCCCCCCCCCCCCC(=O)Oc1c2n(cc(C(=O)NCc3ccc(F)cc3F)c1=O)C[C@H]1OC[C@H](C)N1C2=O [M2CAB]
solubility at 24 h (Aqueous solubility): 1.91 ± 0.23 µg/mL (≈ 2.84 µM)
prodrug cleavage in plasma ([2]; by 2 hours, average): 75%
prodrug cleavage in plasma ([2]; by 6 hours, average): 80%
prodrug hydrolysis ([3]; 37° C., acidic (pH 1)): > 95%
prodrug hydrolysis ([3]; 37° C., neutral (pH 7)): 28%
time to complete hydrolysis ([3]; 37° C., basic (pH 11)): ≤ 2 h
prodrug hydrolysis ([3]; room temperature, acidic (pH 1)): 19%
prodrug hydrolysis ([3]; room temperature, basic (pH 11)): completely hydrolyzed
prodrug hydrolysis ([3]; room temperature, neutral (pH 7)): 24%
EC50 (HIV-1ADA; [5]): 44.7 nM
concentration at 1 day ([4]; female, NSG, mouse, whole blood, intramuscular, 45 mg/kg CAB-equivalents, day 1 post-injection, read-out: prodrug concentration in blood): 31.3 ng/mL
solubility (1-octanol solubility): 2640 ± 20 µg/mL (≈ 3930 µM)

CCCCCCCCCCCCCCCCCCCCCC(=O)Oc1c2n(cc(C(=O)NCc3ccc(F)cc3F)c1=O)CC1OCC(C)N1C2=O (centres unmarked) [M3CAB]
aqueous solubility (Aqueous solubility): 1.51 ± 0.7 µg/mL (≈ 2.07 µM)
prodrug remaining in plasma ([2]; after 24 hours of incubation): around 50%
EC50 (HIV-1ADA): 51.1 nM

CCCCCCCCCCCCCC(=O)Oc1c2n(cc(C(=O)NCc3ccc(F)cc3F)c1=O)CC1OCC(C)N1C2=O (centres unmarked) [MCAB]
aqueous solubility (Aqueous solubility): 2.83 ± 1.37 µg/mL (≈ 4.6 µM)
prodrug cleavage in plasma ([2]; within 30 minutes, 37° C., 1 μM): more than 85%
EC50 (HIV-1ADA): 34.2 nM
prodrug concentration in blood ([4]; day 1 post-injection): 22 ng/mL
prodrug levels in tissues ([4]; day 364): undetectable
